Assay results from article PMC7150891, “Mertansine Inhibits mRNA Expression and Enzyme Activities of Cytochrome P450s and Uridine 5′-Diphospho-Glucuronosyltransferases in Human Hepatocytes and Liver Microsomes” (Pharmaceutics, 2020).
“Also recorded” adds a separate entry of the source.

What was measured:
UGT1A9 = target: T1, UGT1A9 (Homo sapiens, UniProt O60656); assay: Inhibition of UGT1A9-catalyzed mycophenolic acid β-D-glucuronidation in ultrapooled human liver microsomes; assay type: in vitro ADME
T1 construct: ultrapooled human liver microsomes (0.2 mg/mL); from tissue; host or cells: human liver microsomes (ultrapooled)
T1 sequence (O60656 26-530): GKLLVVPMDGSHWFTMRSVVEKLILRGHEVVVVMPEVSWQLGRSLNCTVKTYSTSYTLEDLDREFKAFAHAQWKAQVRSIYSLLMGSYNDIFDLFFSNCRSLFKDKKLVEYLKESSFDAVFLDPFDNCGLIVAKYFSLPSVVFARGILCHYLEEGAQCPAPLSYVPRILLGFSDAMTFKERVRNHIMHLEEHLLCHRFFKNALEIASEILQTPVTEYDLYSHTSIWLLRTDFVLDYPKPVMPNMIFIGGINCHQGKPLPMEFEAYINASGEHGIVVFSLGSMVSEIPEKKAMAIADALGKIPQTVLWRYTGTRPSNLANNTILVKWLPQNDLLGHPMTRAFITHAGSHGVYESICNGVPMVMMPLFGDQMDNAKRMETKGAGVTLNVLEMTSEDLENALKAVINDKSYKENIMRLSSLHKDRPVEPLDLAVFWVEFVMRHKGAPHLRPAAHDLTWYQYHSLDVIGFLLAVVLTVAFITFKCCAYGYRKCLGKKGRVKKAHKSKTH
Protocol: (§1) The inhibitory potential of mertansine on UGT1A1, UGT1A3, UGT1A4, UGT1A6, UGT1A9, and UGT2B7 activities was evaluated using liquid chromatography–tandem mass spectrometry (LC-MS/MS) with a cocktail of UGT substrates and ultrapooled human liver microsomes. Each incubation mixture was prepared to a final volume of 100 μL as follows: ultrapooled human liver microsomes (0.2 mg/mL), 5 mM UDPGA, 10 mM magnesium chloride, alamethicin (25 μg/mL), 50 mM Tris buffer (pH 7.4), various concentrations of mertansine in methanol (final concentrations of 0.01–50 μM), and the cocktail sets of UGT enzyme-specific substrates. Two cocktail sets were used: set A contained 0.5 μM SN-38 for UGT1A1, 2 μM chenodeoxycholic acid for UGT1A3, and 0.5 μM trifluoperazine for UGT1A4; and set B contained 1 μM N-acetylserotonin for UGT1A6, 0.2 μM mycophenolic acid for UGT1A9, and 1 μM naloxone for UGT2B7. The reactions were initiated by adding UDPGA and incubated in a shaking water bath for 60 min at 37 °C. Reactions were terminated by adding 50 μL of ice-cold acetonitrile containing internal standards (IS, propofol glucuronide for set A and meloxicam for set B). Incubation mixtures were centrifuged at 13,000 g for 8 min at 4 °C. Next, 50 μL of each supernatant of sets A and B was mixed, and aliquots (5 μL) were analyzed using LC-MS/MS. […]

CYP2C19 mRNA = CYP2C19 mRNA level in human hepatocytes after 48 h treatment (RT-PCR); settings: plated cryopreserved human hepatocytes, IC50, suppression of CYP2C19 mRNA expression, 1.25–2500 nM
UGT1A1 = target: T2, UGT1A1 (Homo sapiens, UniProt P22309); assay: Inhibition of UGT1A1-catalyzed SN-38 glucuronidation in ultrapooled human liver microsomes; assay type: in vitro ADME
T2 construct: ultrapooled human liver microsomes (0.2 mg/mL); from tissue; host or cells: human liver microsomes (ultrapooled)
T2 sequence (P22309 26-533): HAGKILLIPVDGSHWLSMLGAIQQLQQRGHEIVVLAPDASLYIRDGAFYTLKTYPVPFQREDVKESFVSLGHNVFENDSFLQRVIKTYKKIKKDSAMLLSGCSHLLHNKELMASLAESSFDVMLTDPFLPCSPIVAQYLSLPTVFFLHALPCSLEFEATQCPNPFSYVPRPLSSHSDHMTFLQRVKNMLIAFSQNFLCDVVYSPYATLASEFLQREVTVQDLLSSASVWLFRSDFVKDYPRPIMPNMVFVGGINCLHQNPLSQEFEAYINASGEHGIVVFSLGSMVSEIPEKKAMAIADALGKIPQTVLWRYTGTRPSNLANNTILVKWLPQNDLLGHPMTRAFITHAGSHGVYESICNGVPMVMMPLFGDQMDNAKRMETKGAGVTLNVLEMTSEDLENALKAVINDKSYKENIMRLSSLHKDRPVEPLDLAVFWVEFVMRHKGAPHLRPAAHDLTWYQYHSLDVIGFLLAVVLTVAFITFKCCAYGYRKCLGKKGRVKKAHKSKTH
Protocol: as §1, with “Reactions were terminated by adding 50 μL of ice-cold acetonitrile containing internal standards (IS, propofol glucuronide for set A and meloxicam for set B). Incubation mixtures were centrifuged at 13,000 g for 8 min at 4 °C.” left out
The LC-MS/MS system was comprised of an Agilent 6495 triple quadrupole mass spectrometer coupled with an Agilent 1290 Infinity system (Agilent Technologies, Wilmington, DE, USA). […] The electrospray ionization (ESI) source settings in both positive and negative ion modes were as follows: gas temperature, 200 °C; gas flow, 14 L/min; nebulizer, 40 psi; sheath gas temperature, 380 °C; sheath gas flow, 11 L/min; capillary voltage, 4500 V; and nozzle voltage, 500 V. Each metabolite was quantified via selected reaction monitoring in the negative ion mode (chenodeoxycholic acid 24-acyl-β-glucuronide, m/z 567.1 to 391.2; mycophenolic acid β-D-glucuronide, m/z 495.0 to 319.0; propofol glucuronide (IS), m/z 353.0 to 177.0) and in the positive ion mode (SN-38 glucuronide, m/z 568.9 to 392.9; trifluoperazine N-β-D-glucuronide, m/z 583.9 to 407.9; N-acetylserotonin β-D-glucuronide, m/z 394.0 to 219.0; naloxone 3-β-D-glucuronide, m/z 503.9 to 309.9; meloxicam (IS), m/z 351.9 to 115.0). […]

CYP2C9 mRNA = CYP2C9 mRNA level in human hepatocytes after 48 h treatment (RT-PCR); settings: plated cryopreserved human hepatocytes, IC50, suppression of CYP2C9 mRNA expression, 1.25–2500 nM
[1] = Mean ± SD of three human hepatocyte lots, 48 h
[2] = human hepatocytes Lot 319, 48 h
[3] = human hepatocytes Lot 321, 48 h
[4] = human hepatocytes Lot 361, 48 h

Question: How did the “Inhibition of UGT1A9 enzyme activity” value (UGT1A9; human liver microsomes, mertansine at 50 µM) turn out when `COc1cc2cc(c1Cl)N(C)C(=O)CC(OC(=O)C(C)N(C)C(=O)CCS)C1(C)OC1C(C)C1CC(O)(NC(=O)O1)C(OC)C=CC=C(C)C2` (stereo not shown) [mertansine, Mertansine] was run?
Answer: The value was “no inhibition; also recorded: negligibly inhibited”.

Question: And the “IC50, mycophenolic acid β-D-glucuronidation (UGT1A9)” value (UGT1A9; ultrapooled human liver microsomes, 0.2 µM mycophenolic acid (cocktail))?
Answer: Its value is “No inhibition”.

Question: And the IC50 at 48 h (CYP2C19 mRNA; [1])?
Answer: Its IC50 at 48 h is 540 ± 233 nM.

Question: What about the IC50 at 48 h (CYP2C19 mRNA; [2]) of the same compound?
Answer: The IC50 at 48 h was 574 nM.

Question: And the IC50 at 48 h (CYP2C19 mRNA; [3])?
Answer: The IC50 at 48 h was 754 nM.

Question: And the IC50 at 48 h (CYP2C19 mRNA; [4])?
Answer: Its IC50 at 48 h is 291 nM.

Question: And the “Inhibition Mode, UGT1A1” value (UGT1A1; human liver microsomes, Dixon plot)?
Answer: Its value is “noncompetitively inhibited; also recorded: noncompetitive inhibitor”.

Question: And the Ki (UGT1A1; human liver microsomes, SN-38 0.2–2 µM)?
Answer: The Ki was 13500 nM.

Question: And the IC50 (UGT1A1; ultrapooled human liver microsomes, 0.5 µM SN-38 (cocktail))?
Answer: The IC50 was 16200 nM.

Question: And the IC50 at 48 h (CYP2C9 mRNA; [1])?
Answer: The IC50 at 48 h was 578 ± 452 nM.

Question: And the IC50 at 48 h (CYP2C9 mRNA; [2])?
Answer: The IC50 at 48 h was 788 nM.

Question: What about the IC50 at 48 h (CYP2C9 mRNA; [3]) of the same compound?
Answer: Its IC50 at 48 h is 888 nM.

Question: And the IC50 at 48 h (CYP2C9 mRNA; [4])?
Answer: Its IC50 at 48 h is 59.6 nM.
